Measured values published in article PMC10229078, “In vitro effects of lapachol and β-lapachone against Leishmania amazonensis” (Brazilian Journal of Medical and Biological Research, 2023).
Values joined by “and” are separate entries in the source; they are usually repeats but may differ in a detail not shown here. Equal values may be shown once.

Experiments:
[1] = tested on: Leishmania amazonensis promastigotes; experiment: Change in cell volume and morphology of the parasites (flow cytometry FSC-H/SSC-H, SEM); format: cell-based; conditions: 24 h, lapachol 76.62 µg/mL, β-lapachone 1.63 µg/mL; for Percentage population of the lower left quadrant gate (FSC-H/SSC-H, cell volume): H2O2 2 mM, untreated 93.14%
Description: Promastigote forms (2×10^7 cells) of L. amazonensis untreated (negative control) or treated with 76.62 µg/mL of lapachol and 1.63 µg/mL of β-lapachone were analyzed to observe changes in cell morphology of the parasites induced by the treatment after 24 h of incubation. […] Subsequently, the parasites were analyzed using a BD FacsCalibur flow cytometer (Becton Dickinson, USA) and CellQuest Pro software (Joseph Trotter, Scripps Research Institute, USA), and 10,000 events were acquired. Dot plots were generated, the forward scatter (FSC-H) parameter was analyzed as presenting a correlation with the cell volume.
Scanning electron microscopy (SEM) also was performed to analyze morphological changes in cell surface topography. After 24 h of treatment, the parasites were centrifuged at 576 g for 10 min, and the samples were fixed in 2.5% glutaraldehyde and 0.1 M sodium cacodylate buffer. Poly-L-lysine was used to promote the adhesion of fixed parasites on coverslips. Promastigotes were dehydrated with increasing ethanol concentrations (30-100%), submitted to critical point drying, and metalized with gold for visualization on a Shimadzu 55-550 (Japan) microscope.

[2] = tested on: Leishmania amazonensis promastigotes; experiment: Promastigote growth inhibition, counting in Neubauer chamber (IC50); format: cell-based, Leishmania amazonensis (MHOM/BR/1977/LTB0016)
Description: Leishmania growth was evaluated after 24 h of incubation at 25°C with the compounds under the same conditions as previously mentioned. Then, 10 µL of the content of each well was added to a 990 µL (1/100) of formalin solution (2%), and the parasites were counted in a Neubauer chamber. The inhibitory concentration (IC50) of promastigotes was calculated by comparing with untreated promastigotes in culture medium. The results were evaluated by linear regression of the inhibition percentage. The selectivity index (SI CC50/IC50) was calculated by the ratio of toxicity concentration to macrophage vs inhibitory concentration to the parasite growth after 24 h incubation ([27]). All assays were performed in triplicate and repeated at least three times.

[3] = tested on: L. amazonensis promastigotes; experiment: DNA fragmentation assay, agarose gel electrophoresis; format: cell-based, Leishmania amazonensis; conditions: IC50/24 h (lapachol 76.62 µg/mL, β-lapachone 1.63 µg/mL)
Description: The presence of DNA fragmentation was evaluated by electrophoresis in agarose gel according to a previous study ([33]). L. amazonensis (1×10^6 promastigotes/mL) was incubated with the IC50 of compounds for 24 h. After validation of IC50 as mentioned above, pellets were re-suspended in digestion buffer (10 mM ethylenediamine tetraacetic acid [EDTA], 50 mM Tris-HCl [pH 8.0] and 0.5% sodium lauryl sulfate), to which 0.5 mg/mL proteinase K was added. The mixture was incubated for 3 h in […] and again for 1 h at 55°C in the presence of 0.1 mg/mL RNase A. DNA material was extracted by phenol/chloroform (1:1) treatment and was precipitated by adding 3 M sodium acetate and ice-cold ethanol (100%). After an overnight incubation at -20°C, the material was centrifuged (13270 g) for 30 min at 25°C temperature. Then, 2.5 volumes of ethanol (70%) were added to the pellet. The material was centrifuged (13270 g) for 15 min again and the pellet was collected, air dried, and re-suspended in Tris-EDTA buffer (50 µL, pH 8.0). DNA aliquots (10 µg) were electrophoresed on 2% agarose gel that contained ethidium bromide (0.5 µg/mL) using Tris-acetate-EDTA buffer (pH 8.0) for 45 min at 100 V and photographed under ultraviolet light. L. amazonensis untreated promastigotes were used as negative control of fragmentation (C-) and promastigotes treated with H2O2 as positive control (C+). […]

[4] = tested on: Leishmania amazonensis promastigotes; experiment: Viability assay of promastigotes, XTT colorimetric method (LD50); format: cell-based, Leishmania amazonensis (MHOM/BR/1977/LTB0016); conditions: 25°C
Description: The viability of L. amazonensis (MHOM/BR/1977/LTB0016) promastigotes was evaluated using the XTT colorimetric method, which consists in the XTT salt degradation by the mitochondria forming formazan crystals. Promastigote forms (2×10^7 parasites/mL) from a culture in logarithmic growth phase were incubated with lapachol and β-lapachone diluted in 199 culture medium. The drugs were diluted in series, in a ratio of two, starting from 1/2, on a 96-well cell culture plate (TPP™ test plate, Switzerland). The compounds were tested at concentrations from 204.4 to 0.40 µg/mL (lapachol) and 157.5 to 0.31 µg/mL (β-lapachone). After 24, 48, and 72 h of incubation at 25°C, 100 μL of the XTT solution (500 μg/mL) activated with PMS (50 μg/mL) were added to each well and incubated for 4 h at 37°C. The result was measured by absorbance, determined by spectrophotometry (450/650 nm filter, VersaMax™ ELISA microplate reader, USA). The lethal dose (LD50) was defined as the concentrations of the compounds that reduced survival of L. amazonensis by 50% compared to untreated parasites in culture medium. AmB (1.96 to 0.25 µg/mL) was used as positive control of leishmanicidal activity. The therapeutic selectivity index (TSI CC50/LD50) was calculated by the ratio of toxicity to macrophage vs toxicity to parasites after 24 h incubation ([28]). All assays were performed in triplicate and repeated at least three times.

J774A.1 macrophages = experiment: Macrophage cytotoxicity, XTT, J774A.1
[5] = tested on: Peritoneal macrophages from BALB/c mice; experiment: Macrophage cytotoxicity, XTT, peritoneal macrophages
Description: Peritoneal macrophages from BALB/c mice were obtained as described before and adjusted to 1×10^6 macrophages/mL and plated in 96-well culture plates (TPP™ test plate, Switzerland), followed by 2 h of incubation (5% CO2 at 37°C). […] Cultures were incubated for 24 h at 37°C in 5% CO2, and non-treated cultures were used as viability control. […] After 4 h of incubation in 5% CO2 at 37°C protected from light, the results were measured as absorbance, determined by spectrophotometry (450/620 nm filter, VersaMax™ ELISA microplate reader) ([28]). […] At least three experiments were performed in quadruplicate.

4-hydroxy-3-(3-methylbut-2-enyl)naphthalene-1,2-dione [lapachol]
Morphological changes of promastigotes (SEM, microscopy) [1]: loss of cell volume, rounder shape, flagellar alterations, and cellular shrinkage | Percentage population of the lower left quadrant gate (FSC-H/SSC-H, cell volume) [1]: 82.82% | IC50 ([2]; 24 h, value in µM): 316 µM | Promastigotes IC50 ([2]; 24 h incubation, growth inhibition by counting): 76.62 ± 1.21 µg/mL | DNA fragmentation [3]: promoted DNA fragmentation | Promastigotes LD50 ([4]; 24 h incubation): 75.60 µg/mL | Promastigotes LD50 ([4]; 24 h incubation, listed as Lapachol (1)): 75.60 ± 6.12 µg/mL | Promastigotes LD50 ([4]; 48 h incubation): 72.82 µg/mL and 72.82 ± 12.99 µg/mL | Promastigotes LD50 ([4]; 72 h incubation): 58.85 µg/mL and 58.85 ± 6.43 µg/mL | J774A.1 macrophage cytotoxicity CC50 (J774A.1 macrophages; J774A.1, 24 h): 26.66 ± 8.69 µg/mL | Murine macrophage cytotoxicity CC50 ([5]; peritoneal macrophages, 24 h): 41.14 ± 2.17 µg/mL

CC1(C)CCC2=C(O1)c1ccccc1C(=O)C2=O [β-lapachone, 2,2-dimethyl-3,4-dihydrobenzo[h]chromene-5,6-dione]
Morphological changes of promastigotes (SEM, microscopy) [1]: loss of cell volume, rounder shape, flagellar alterations, and cellular shrinkage | Percentage population of the lower left quadrant gate (FSC-H/SSC-H, cell volume) [1]: 62.35% | IC50 ([2]; Leishmania amazonensis, 24 h, value in µM): 6.73 µM | IC50 ([2]; Leishmania amazonensis, 24 h incubation, growth inhibition by counting): 1.63 ± 0.09 µg/mL | DNA fragmentation [3]: promoted DNA fragmentation | Promastigotes LD50 ([4]; 24 h incubation): 0.65 µg/mL and 0.65 ± 0.18 µg/mL | Promastigotes LD50 ([4]; 24 h incubation, listed as β-lapachone (2)): 0.65 ± 0.18 µg/mL | Promastigotes LD50 ([4]; 48 h incubation): 1.24 µg/mL and 1.24 ± 0.19 µg/mL | Promastigotes LD50 ([4]; 72 h incubation): 0.71 µg/mL and 0.71 ± 0.03 µg/mL | Selectivity index (SI CC50/IC50) (J774A.1 macrophages; J774A.1 macrophage CC50 / promastigote IC50, 24 h): 1.95 | Therapeutic selectivity index (TSI CC50/LD50) (J774A.1 macrophages; J774A.1 macrophage CC50 / promastigote LD50, 24 h): 4.89 | times more selective than lapachol for Leishmania death (TSI) (J774A.1 macrophages; J774A.1 macrophages): 14 times | times more selective than lapachol for inhibiting the growth of Leishmania culture (SI) (J774A.1 macrophages; J774A.1 macrophages): 5.6 times | Selectivity index (SI CC50/IC50) ([5]; murine macrophage CC50 / promastigote IC50, 24 h): 1.97 | Therapeutic selectivity index (TSI CC50/LD50) ([5]; murine macrophage CC50 / promastigote LD50, 24 h): 4.94 | times more selective than lapachol for Leishmania death (TSI) ([5]; murine macrophages): 9.15 times | times more selective than lapachol for inhibiting the growth of Leishmania culture (SI) ([5]; murine macrophages): 3.65 times
